Data: PubChem BioAssay AID1963434 (Molecular Pharmacology Branch, DTP, NCI, 2024)
pIC50: −log10 of the molar value.

Tested on: 755483-174-R-J1-PDC complex spheroid growth, percent test/control
Experiment: Anticancer human tumor 755483-174-R-J1-PDC patient-derived rhabdomyosarcoma cell line growth inhibition [Asc]
Settings: for pIC50: curve of first compound; for viability, T/C: stronger effect = lower value
How it was run: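 Tumor cells were grown as complex spheroids with human endothelial cells (HUVEC) and human mesenchymal stem cells as stroma. Agents were tested alone and in combination, in half-log steps down from the clinical Cmax, or from 10 microM where Cmax was unknown.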

[1] = second compound 0.1 µM, first compound 0.0316 µM
[2] = second compound 0.1 µM, first compound 0.1 µM
[3] = second compound 0.1 µM, first compound 0.316 µM
[4] = second compound 0.1 µM, first compound 1 µM
[5] = second compound 0.316 µM, first compound 0.0316 µM
[6] = second compound 0.316 µM, first compound 0.1 µM
[7] = second compound 0.316 µM, first compound 0.316 µM
[8] = second compound 0.316 µM, first compound 1 µM
[9] = second compound 1 µM, first compound 0.0316 µM
[10] = second compound 1 µM, first compound 0.1 µM
[11] = second compound 1 µM, first compound 0.316 µM
[12] = second compound 1 µM, first compound 1 µM
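Further: spheroids exposed to compounds for seven days before readout.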

## O=C(c1ccc(F)c(F)c1Nc1ccc(I)cc1F)N1CC(O)([C@@H]2CCCCN2)C1 + Cc1c(S(C)(=O)=O)c(-c2cc(F)cc(N3CCN(c4ccc(NS(=O)(=O)c5ccc(NC(CCN6CCC(C(=O)OCCCP(=O)(O)O)CC6)CSc6ccccc6)c(S(=O)(=O)C(F)(F)F)c5)cc4)CC3)c2)c(-c2ccc(Cl)cc2)n1C(C)C
Second compound 0.1 µM
  pIC50: 7.67
Second compound 0.316 µM
  pIC50: > 8.50
Second compound 1 µM
  pIC50: > 8.50
Second compound 3.16 µM
  pIC50: > 8.50
Second compound 10 µM
  pIC50: > 8.50
Second compound 0.1 µM, first compound 0.00316 µM
  viability, T/C: 46.3%
Second compound 0.1 µM, first compound 0.01 µM
  viability, T/C: 71.5%
[1]
  viability, T/C: 33.4%
[2]
  viability, T/C: 45.1%
[3]
  viability, T/C: 30.7%
[4]
  viability, T/C: 4.92%
Second compound 0.316 µM, first compound 0.00316 µM
  viability, T/C: 41.9%
Second compound 0.316 µM, first compound 0.01 µM
  viability, T/C: 42%
[5]
  viability, T/C: 44.8%
[6]
  viability, T/C: 43.7%
[7]
  viability, T/C: 22%
[8]
  viability, T/C: 6.11%
Second compound 1 µM, first compound 0.00316 µM
  viability, T/C: 39.2%
Second compound 1 µM, first compound 0.01 µM
  viability, T/C: 44.3%
[9]
  viability, T/C: 42.1%
[10]
  viability, T/C: 36.9%
[11]
  viability, T/C: 24.6%
[12]
  viability, T/C: 4.55%
Second compound 3.16 µM, first compound 0.00316 µM
  viability, T/C: 38.9%
Second compound 3.16 µM, first compound 0.01 µM
  viability, T/C: 25%
Second compound 3.16 µM, first compound 0.0316 µM
  viability, T/C: 26.6%
Second compound 3.16 µM, first compound 0.1 µM
  viability, T/C: 29.5%
Second compound 3.16 µM, first compound 0.316 µM
  viability, T/C: 15.3%
Second compound 3.16 µM, first compound 1 µM
  viability, T/C: 3.65%
Second compound 10 µM, first compound 0.00316 µM
  viability, T/C: 34.5%
Second compound 10 µM, first compound 0.01 µM
  viability, T/C: 42%
Second compound 10 µM, first compound 0.0316 µM
  viability, T/C: 32.1%
Second compound 10 µM, first compound 0.1 µM
  viability, T/C: 29.1%
Second compound 10 µM, first compound 0.316 µM
  viability, T/C: 11.1%
Second compound 10 µM, first compound 1 µM
  viability, T/C: 2.13%

## O=C(c1cc(Cc2n[nH]c(=O)c3ccccc23)ccc1F)N1CCN(C(=O)C2CC2)CC1 + CNC(C)C(=O)NC1CN(S(=O)(=O)c2cccc(S(=O)(=O)N3CCC4CCC(C(=O)NC(c5ccccc5)c5ccccc5)N4C(=O)C(NC(=O)C(C)NC)C3)c2)CCC2CCC(C(=O)NC(c3ccccc3)c3ccccc3)N2C1=O
Second compound 0.01 µM
  pIC50: > 7.50
Second compound 0.0316 µM
  pIC50: > 7.50
Second compound 0.1 µM
  pIC50: > 7.50
Second compound 0.316 µM
  pIC50: > 7.50
Second compound 1 µM
  pIC50: > 7.50
Second compound 0.01 µM, first compound 0.0316 µM
  viability, T/C: 41.7%
Second compound 0.01 µM, first compound 0.1 µM
  viability, T/C: 41.1%
Second compound 0.01 µM, first compound 0.316 µM
  viability, T/C: 34.5%
Second compound 0.01 µM, first compound 1 µM
  viability, T/C: 27.5%
Second compound 0.01 µM, first compound 3.16 µM
  viability, T/C: 24.1%
Second compound 0.01 µM, first compound 10 µM
  viability, T/C: 12%
Second compound 0.0316 µM, first compound 0.0316 µM
  viability, T/C: 35.3%
Second compound 0.0316 µM, first compound 0.1 µM
  viability, T/C: 34.3%
Second compound 0.0316 µM, first compound 0.316 µM
  viability, T/C: 24.3%
Second compound 0.0316 µM, first compound 1 µM
  viability, T/C: 21.3%
Second compound 0.0316 µM, first compound 3.16 µM
  viability, T/C: 17.9%
Second compound 0.0316 µM, first compound 10 µM
  viability, T/C: 9.95%
[1]
  viability, T/C: 27.2%
[2]
  viability, T/C: 40.2%
[3]
  viability, T/C: 28.5%
[4]
  viability, T/C: 23.6%
Second compound 0.1 µM, first compound 3.16 µM
  viability, T/C: 15.5%
Second compound 0.1 µM, first compound 10 µM
  viability, T/C: 7.57%
[5]
  viability, T/C: 29.5%
[6]
  viability, T/C: 40.1%
[7]
  viability, T/C: 23.3%
[8]
  viability, T/C: 15.7%
Second compound 0.316 µM, first compound 3.16 µM
  viability, T/C: 8.99%
Second compound 0.316 µM, first compound 10 µM
  viability, T/C: 3.81%
[9]
  viability, T/C: 16.7%
[10]
  viability, T/C: 17.2%
[11]
  viability, T/C: 6.88%
[12]
  viability, T/C: 6.73%
Second compound 1 µM, first compound 3.16 µM
  viability, T/C: 8.78%
Second compound 1 µM, first compound 10 µM
  viability, T/C: 3.7%
